Data on 80 compounds can be found in publication PMC12040169 (PLOS Biology, 2025).

One data set can be described thus: in vitro. The conditions noted are these: human, hela cells, % viability.
In general, viability refers to a read-out of living cells in per cent, often relative to untreated cells. For `Cn1cccc1CCC(=O)NC1CCN(Cc2ccccc2Cl)CC1` [CBK306814], the viability at 28.5 h, 10 µM was 88.4%.

Take `CC(=O)c1ccc(OCC(=O)Nc2cnc(-c3cccc(C)c3)c(-c3ccc(N)cc3)n2)cc1` [CBK036722]: the viability at 28.5 h, 10 µM was 107%.

Consider `O=C(O)CNS(=O)(=O)c1ccc2nc(O)c(O)nc2c1` [CBK264334], for which the viability at 28.5 h, 10 µM stood at 94.4%.

Regarding `c1ccc(CN2CCN(CCN3CCn4c3nc3ccccc34)CC2)cc1` [CBK265472B], the viability at 28.5 h, 10 µM is 97.5%.

On to `COc1ccc(N2CCN(c3nc(NCCO)nc(N4CCOCC4)n3)CC2)cc1` [CBK265413], for which the viability at 28.5 h, 10 µM came to 99.3%.

Turning to `c1ccc2oc(-c3cc4ccccc4o3)cc2c1` [CBK113363], the viability at 28.5 h, 10 µM was determined as 113%.

On to `O=C1CCC(=O)N1CCOc1nccnc1-c1ccc2c(c1)OCO2` [CBK106698], for which the viability at 28.5 h, 10 µM stood at 92.3%.

For `CCC(Sc1nccn1C)C(=O)Nc1ccc(S(N)(=O)=O)cc1` (centres unmarked) [CBK058413], the viability at 28.5 h, 10 µM worked out at 107%.

Take `O=c1c(-c2nnc(SCc3cccc(C(F)(F)F)c3)o2)cccn1Cc1ccccc1` [CBK067712]: the viability at 28.5 h, 10 µM amounted to 108%.

As to `O=S(=O)(Cc1ccc(Cl)cc1)NCCCn1ccnc1` [CBK268372], the viability at 28.5 h, 10 µM amounted to 106%.

As for `COc1cc(CNc2cncc(-c3cccc(NC(C)=O)c3)n2)cc(OC)c1OC` [CBK066133], the viability at 28.5 h, 10 µM was 100%.

For `OCc1ccc(-c2nccnc2NCC2CC2)cc1` [CBK037334], the viability at 28.5 h, 10 µM is 86%.

For the compound `CC(C)(C)c1ccc(C(=O)NNC(=O)C(=O)Nc2ccccc2)cc1` [CBK261701], the viability at 28.5 h, 10 µM came out at 83.1%.

On to `Cc1ccc(C(=O)CN2CCC3(CC2)NCCc2c3[nH]c3ccc(F)cc23)cc1` [CBK039503], for which the viability at 28.5 h, 10 µM came to 107%.

With `Cn1ncc2c(=O)n(Cc3noc(-c4ccsc4)n3)cnc21` [CBK305056], the viability at 28.5 h, 10 µM turned out to be 99%.

As to `Cc1n[nH]c(-c2ccccc2NC(=O)Cc2sc(C)nc2-c2cccs2)n1` [CBK297737], the viability at 28.5 h, 10 µM turned out to be 88.5%.

For `C(=C\c1ccccc1)/CN1CCC(Cc2ccccc2)CC1` [CBK126384], the viability at 28.5 h, 10 µM was 119%.

Turning to `Cn1c(N2CC[C@H](O)C2)nc2cc(C(=O)NC[C@@H]3CCCO3)ccc21` [CBK307433], the viability at 28.5 h, 10 µM was 109%.

In the case of `O=C1Nc2c(cnn2-c2ccc(Cl)cc2)C2=NCCN12` [CBK284341], the viability at 28.5 h, 10 µM is 93.1%.

Consider `O=C(c1cccnc1)C1CCN(C(=O)c2cccs2)CC1` [CBK283528], for which the viability at 28.5 h, 10 µM came out at 102%.

Turning to `C[C@H](Nc1cncc(-c2cccc(N(C)C)c2)n1)c1ccccc1` [CBK065699], the viability at 28.5 h, 10 µM worked out at 96.8%.

Turning to `CC(C(=O)NC1(C#N)CCCCC1)N1CCOC(c2nccs2)C1` (centres unmarked) [CBK305299], the viability at 28.5 h, 10 µM is 80.9%.

Regarding `Cc1ccc(CNc2nc3c(c(=O)[nH]c(=O)n3C)n2CC(O)COC(C)C)cc1` (centres unmarked) [CBK139849], the viability at 28.5 h, 10 µM was 87.3%.

For `O=C(NCc1ccccc1)[C@H]1CN2CCC1C[C@@H]2Cn1cc(-c2ccc(F)cc2)nn1` (some centres unmarked) [CBK288736], the viability at 28.5 h, 10 µM was 87%.

Consider `Cn1cnnc1SCC(=O)Nc1c(F)cccc1F` [CBK295150], for which the viability at 28.5 h, 10 µM worked out at 88.2%.

Turning to `CCN1CCCC1CNC(=O)C(=O)Nc1ccccc1OC` (centres unmarked) [CBK266865], the viability at 28.5 h, 10 µM came out at 103%.

Turning to `COC(=O)Nc1ccc(S(=O)(=O)N2CCCC(C(=O)Nc3ccc4c(c3)OCO4)C2)cc1` (centres unmarked) [CBK265361], the viability at 28.5 h, 10 µM was 89.8%.

Regarding `Cc1cc(C(C)(C)C)cc(C)c1S(=O)(=O)NCCSCCN` [CBK013357], the viability at 28.5 h, 10 µM is 97.8%.

Regarding `Cc1oc2c(CN(C)C)c(O)ccc2c(=O)c1-c1cnn(-c2ccccc2)c1` [CBK264496], the viability at 28.5 h, 10 µM is 101%.

As to `CNCC1CCN(S(=O)(=O)c2ccc(OCc3ncnn3C)cc2)CC1` [CBK304309C], the viability at 28.5 h, 10 µM was 97.6%.

In the case of `CN1CCCN(c2cncc(-c3cccs3)n2)CC1` [CBK065542], the viability at 28.5 h, 10 µM was determined as 101%.

With `NNC(=O)COc1ccc(Cl)cc1Cl` [CBK261671], the viability at 28.5 h, 10 µM amounted to 92.6%.

Turning to `Cc1nn(C)cc1CN(C)CC(=O)Nc1nc2c(s1)CC(C)CC2` (centres unmarked) [CBK306669], the viability at 28.5 h, 10 µM was determined as 90.6%.

On to `O=C(NCc1ccc2occc2c1)c1ccc2[nH]ccc2c1` [CBK149055], for which the viability at 28.5 h, 10 µM was 89.7%.

Regarding `O=C(CCn1cccn1)NC(Cc1ccsc1)c1cccnc1` (centres unmarked) [CBK285393], the viability at 28.5 h, 10 µM amounted to 101%.

`O=C(Cc1cccc(F)c1)NCCn1nc(-c2ccco2)ccc1=O` [CBK283708]: the viability at 28.5 h, 10 µM worked out at 86.3%.

In the case of `COc1ccc(S(=O)(=O)N(C)CC(=O)N2CCN(C)CC2)cc1C` [CBK268105], the viability at 28.5 h, 10 µM was 100%.

Take `Cc1nccn1CCC1CCN(C(=O)c2cnn(C)c2)CC1` [CBK281951]: the viability at 28.5 h, 10 µM worked out at 89.3%.

Consider `O=C(CCN1CCOCC1)Nc1ccc(Cl)cc1` [CBK263820], for which the viability at 28.5 h, 10 µM stood at 98.8%.

Regarding `CN(CCC1CCN(c2ccncc2)CC1)C(=O)c1cc2sccc2[nH]1` [CBK305468], the viability at 28.5 h, 10 µM was found to be 93.3%.

Take `O=C(OCc1ccccc1)Oc1cncc(C(=O)O)c1` [CBK262053]: the viability at 28.5 h, 10 µM turned out to be 91.1%.

With `COc1cc(S(=O)(=O)Oc2ccc(OCc3ccccc3)cc2)ccc1Cl` [CBK264132], the viability at 28.5 h, 10 µM was 92.2%.

With `CCOC(=O)CSc1nc(-c2ccc3c(c2)OCO3)ccc1C#N` [CBK270262], the viability at 28.5 h, 10 µM is 87.6%.

Take `CCS(=O)(=O)Nc1cc(C(F)(F)F)ccc1Cl` [CBK111339]: the viability at 28.5 h, 10 µM was 111%.

Consider `Cc1ccc([N+](=O)[O-])cc1NS(=O)(=O)Cc1ccc(Cl)cc1` [CBK111359], for which the viability at 28.5 h, 10 µM was 71.8%.

On to `Nn1cnn2c(SCc3ccc(Cl)cc3)nnc12` [CBK263193], for which the viability at 28.5 h, 10 µM was 106%.

For the compound `Cc1nc(O)cc(C2CCN(C(=O)c3scc4c3CCCC4)CC2)n1` [CBK307452], the viability at 28.5 h, 10 µM is 85.9%.

Regarding `Nc1nc2ccc(-c3nc4ccccc4o3)cc2s1` [CBK287846], the viability at 28.5 h, 10 µM stood at 57.4%.

In the case of `COc1ccc(CNC2CCCc3ccccc32)c(OC)c1C` (centres unmarked) [CBK025778G], the viability at 28.5 h, 10 µM was 77.6%.

As for `CCC1CCCCN1S(=O)(=O)c1ccc(NC(=O)Cn2c(=O)oc3ccccc32)cc1` (centres unmarked) [CBK268069], the viability at 28.5 h, 10 µM amounted to 89.2%.

As for `CCC1CCCCN1S(=O)(=O)c1cccc2c(S(=O)(=O)N3CCCCC3CC)cccc12` (centres unmarked) [CBK262073], the viability at 28.5 h, 10 µM stood at 92.8%.

Take `CC(C)(C)NS(=O)(=O)c1ccccc1[N+](=O)[O-]` [CBK260932]: the viability at 28.5 h, 10 µM was 97.8%.

Consider `CN(C)CCN(C)c1nc(-c2ccc(C(C)(C)C)cc2)cn2ccnc12` [CBK066477], for which the viability at 28.5 h, 10 µM came out at 107%.

With `C=CCn1c(Cc2csc(NC(=O)Cc3cc(OC)c(OC)c(OC)c3)n2)n[nH]c1=S` [CBK295311], the viability at 28.5 h, 10 µM was found to be 87.1%.

Take `Cc1c(C(=O)NCCN2CCCC(C(N)=O)C2)[nH]c2c(F)cccc12` (centres unmarked) [CBK306877]: the viability at 28.5 h, 10 µM amounted to 81.7%.

For `Cc1cccc(C=C(Cl)c2nc3sc(C(=O)O)c(C)c3c(=O)[nH]2)c1` [CBK295626], the viability at 28.5 h, 10 µM worked out at 91.6%.

As for `COc1ccc(C(=O)N2CC[C@H]3CC(=O)N(CCN4CCNC4=O)CC[C@H]3C2)cc1` [CBK288795], the viability at 28.5 h, 10 µM was 110%.

Consider `Cc1ccc(SCCCn2cnc3ccccc32)cc1` [CBK267821G], for which the viability at 28.5 h, 10 µM worked out at 93.7%.

In the case of `Cc1cc(=O)n2c(-c3ccc(NS(=O)(=O)c4cccnc4)cc3)csc2n1` [CBK287837], the viability at 28.5 h, 10 µM is 91.6%.

For `Cc1cc(-c2cn3cc(C(=O)N4CCNCC4)nc3c(=O)n2C)c(C)o1` [CBK307325], the viability at 28.5 h, 10 µM was determined as 108%.

On to `Cc1sc2nc(NCCO)nc(O)c2c1C` [CBK018257], for which the viability at 28.5 h, 10 µM stood at 86.9%.

For the compound `CCn1c(=O)n(CC(=O)N2CCCC3CCCCC32)c2cccnc21` (centres unmarked) [CBK283893], the viability at 28.5 h, 10 µM was 87.3%.

Take `CCc1nn(CC(=O)N(CC)CC)c(=O)c2cc3sc(C)cc3n12` [CBK284121]: the viability at 28.5 h, 10 µM was 86.2%.

In the case of `Cc1nc(-c2ccccc2)ncc1COC(=O)N1CCOCC1` [CBK200147], the viability at 28.5 h, 10 µM is 112%.

As for `COC(=O)c1ccc(-c2ccc3[nH]ccc3c2)nc1` [CBK160174T], the viability at 28.5 h, 10 µM is 89.1%.

Take `O=S(=O)(NCC(O)Cn1c2ccc(Cl)cc2c2cc(Cl)ccc21)c1ccccc1` (centres unmarked) [CBK262542]: the viability at 28.5 h, 10 µM amounted to 88.6%.

`Cc1ccc2c(c1)nc(CNC(=O)NCCc1nc(C)no1)n2C` [CBK305552]: the viability at 28.5 h, 10 µM was 98.8%.

As to `O=C(O)c1ccc(S(=O)(=O)c2ccc(C(=O)O)c(C(=O)O)c2)cc1C(=O)O` [CBK022872], the viability at 28.5 h, 10 µM turned out to be 93.1%.

For `CN(C)CCNC(=O)C1CCN(c2nc3c(-c4ccccc4F)csc3c(=O)[nH]2)CC1` [CBK215437], the viability at 28.5 h, 10 µM worked out at 85.1%.

Consider `Cc1nc(C)c(C(C)NCc2c(C(C)C)nn(C)c2N(C)C)s1` (centres unmarked) [CBK304005], for which the viability at 28.5 h, 10 µM was determined as 74.3%.

Consider `c1ccc2oc(-c3cncc(N4CCN(CCN5CCCC5)CC4)n3)cc2c1` [CBK066052], for which the viability at 28.5 h, 10 µM stood at 97.1%.

Turning to `Cc1cc(NS(=O)(=O)c2cccc([N+](=O)[O-])c2)n(C)n1` [CBK067243], the viability at 28.5 h, 10 µM came to 99.2%.

Regarding `COc1cccc(CN2CC=CCC(C3CCN(c4nc(C)cc(C)n4)CC3)C2=O)c1` (centres unmarked) [CBK285915], the viability at 28.5 h, 10 µM was determined as 85.6%.

For the compound `COc1cccc(Nc2cc(-c3ccc(CC(C)C)cc3)ncn2)c1` [CBK090745], the viability at 28.5 h, 10 µM was 110%.

Turning to `O=c1c2c3c(sc2ncn1CC(O)CO)CCCC3` (centres unmarked) [CBK269448], the viability at 28.5 h, 10 µM stood at 94.8%.

For the compound `Cc1cc(C)n(C(C(=O)NCC2(C)COC2)C(C)C)n1` (centres unmarked) [CBK281758], the viability at 28.5 h, 10 µM is 85.9%.

`O=C(CCC1CCCC1)n1ccn(CCc2cccs2)c1=O` [CBK106611]: the viability at 28.5 h, 10 µM is 97.6%.

Regarding `CCN1CCN(c2ccc(NC(=O)c3ccc(-c4cc5ccccc5oc4=O)cc3)cc2Cl)CC1` [CBK266700], the viability at 28.5 h, 10 µM amounted to 84.6%.

For `O=C(O)CCN/C(=N\S(=O)(=O)c1ccccc1)c1ccccc1` [CBK266111], the viability at 28.5 h, 10 µM was 92.2%.

The data set is the same for the next values; noted with them: human, hela cells, % viability, bulk resorufin, single well.
On to `COc1ccc(CCNC(=O)c2cccc(-c3ccc4c(c3)COC3(CCNCC3)O4)c2)cc1OC` [CBK110024], for which the viability at 28.5 h, 10 µM came out at 116%.
